{"source": "patent US20110038945A1", "about": "“Orally ingestable medicament and method for treating a heartburn inducing event or an acid reflux episode in a living human subject” (priority 2009, published 2011)", "origin": "cited, not measured here"}
{"molecule": "COc1cc(N)c(Cl)cc1C(=O)NC1CCN(CCCOc2ccc(F)cc2)CC1OC", "note": "(centres unmarked) [cisapride]", "values": [{"measurement": "deaths", "setting": "included in the heart rhythm abnormality reports", "value": "more than 80 deaths"}, {"measurement": "reports of heart rhythm abnormalities", "setting": "linked to the drug at recall from the U.S. market in 2000", "value": "more than 300 reports"}]}
